Results: publication PMC9238271, “The quorum sensing peptide EntF* promotes colorectal cancer metastasis in mice: a new factor in the host-microbiome interaction” (BMC Biology, 2022)
“And” between values parts separate entries of the source, which are not always exact repeats. Equal values may be shown once.

Assays:
[1] = test system: E-cadherin expression in HCT-8 cells; experiment: Western blot of E-cadherin expression, HCT-8 cells (EntF*, alanine and D-amino acid analogs); assay type: cell-based
Procedure: (§1) HCT-8, HT-29, and HT-116 cells were grown in DMEM medium supplied with 10% fetal bovine serum (FBS) and 1% penicillin-streptomycin. Caco-2 cells were grown in DMEM medium supplied with 10% FBS, 1% non-essential amino acid NEAA), and 1% penicillin-streptomycin. Cells were cultured at 37 °C and 5% CO2. As cells reached confluency, they were detached using 0.25% Trypsin-EDTA.
(§2) For Western blot analyses, HCT-8 (n = 15), HCT-116 (n = 12), Caco-2 (n = 6), and HT-29 (n = 12) cells were seeded in 6-well plates at a density of 1 × 10^6 cells/well. Twenty-four hours after seeding, all cell lines were treated with 1 μM EntF* or a placebo solution. HCT-8 cells were also tested for responsiveness to 1 μM EntF* synthetic alanine-derived analogs. For antagonist activity analysis, HCT-8 cells were treated with 1 μM Nef-M1 or 1 μM EntF*A1 alone or in combination with 500 nM EntF*. After 24 h, cells were detached from the surface and lysed in RIPA buffer (Thermo Scientific). Protein concentration was determined using the modified Lowry protein assay kit (Thermo Scientific), according to the manufacturer’s instructions. Protein samples were diluted to the same concentration (4 μg/μL) with water and diluted again 1:1 using 2x Laemmli buffer. After that, samples were boiled for 5 min at 95 °C to denature proteins and centrifuged for 5 min at 16,000g; supernatants were used for Western blot analyses. Equal amounts of total protein (20 μg/lane) were separated by SDS-PAGE on an Any kD^TM gel (Bio-Rad ) and then transferred to a PVDF membrane. Before incubation with antibodies, non-specific binding sites on the membranes were blocked using 5% skimmed milk solution (1 h). TBS buffer with 0.05% Tween 20 was used for all washing steps. Membranes were incubated overnight at 4 °C with an anti-E-cadherin primary antibody (1/1000 dilution). An HRP-conjugated anti-rabbit antibody (1/2000 dilution, 1 h incubation) was used for chemiluminescent detection. Membranes were incubated with the detection substrate for 5 min and signal detection was performed using the ChemiDoc EZ imager and Image Lab software (Bio-Rad). Signal intensity was normalized against the total protein content in each lanes.
A quantitative approach was used to evaluate the importance of each amino acid, where the Fisher’s LSD p-values of (1) multiple comparisons between EntF* and the alanine (ALA) scan and (2) multiple comparisons between different peptides of the ALA scan are combined. Subsequently, based on the combined P-score, the amino acids were classified in 5 classes using a hierarchical cluster analysis and confirmed using the Jenks natural breaks algorithm with K = 5. CombinedPscore=1-PPBSvsALAscan*PEntF*vsALAscan

[2] = test system: E-cadherin expression in HT-29 cells; experiment: Western blot of E-cadherin expression, HT-29 cells; assay type: cell-based; settings: HT-29 cells, average of n = 12
Procedure: as §1
as §2, with “Signal intensity was normalized against the total protein content in each lanes.” left out

[3] = test system: E-cadherin expression in Caco-2 cells; experiment: Western blot of E-cadherin expression, Caco-2 cells; assay type: cell-based; settings: CaCo-2 cells, average of n = 6
Procedure: as §1
as §2, with “Signal intensity was normalized against the total protein content in each lanes.” left out

[4] = test system: E-cadherin expression in HCT-116 cells; experiment: Western blot of E-cadherin expression, CXCR4-negative HCT-116 cells; assay type: cell-based
Procedure: as §1, §2

[5] = test system: luciferase-transfected HCT-8/E11 cells injected into the cecal wall; experiment: Orthotopic mouse model of colorectal cancer: weekly bioluminescent imaging; assay type: in vivo, female athymic nude mice (Swiss nu/nu)
Procedure: All in vivo experiments were performed according to the Ethical Committee principles of laboratory animal welfare, approved by our institute (Ghent University, Faculty of Medicine and Health Sciences, approval number ECD 17-90). Mice were maintained in a sterile environment under controlled conditions (light–dark cycle with light from 7:00 h to 17:00 h, temperature 21–25 °C and humidity 45–65%). Before the experiment, mice were allowed to acclimate to the abovementioned conditions for a minimum of 7 days.
(§3) Six-week-old female athymic nude mice (Swiss nu/nu) were anesthetized, and a minimally invasive midline laparotomy was performed to localize the cecum. The cecum was then gently pulled out, and luciferase-transfected HCT-8/E11 cells (1 × 10^6 cells) in 20 μL serum-free DMEM medium with Matrigel (1:1) were injected into the cecal wall. Before implantation, cells were treated with EntF* (10^2 nM), Phr0662 (10^2 nM), vehicle (PBS), or TGFα positive control (0.1 μg mL^−1) solutions for 5 days. The cecum was then carefully placed back into the abdominal cavity and the surgical incision was closed with two layers of sutures with PDS 6-0. […] Once a week, mice were examined for tumor growth and metastases using bioluminescent imaging with the IVIS Lumina II (Perkin Elmer, Belgium) after i.p. injection with 200 μL luciferin (150 mg kg^−1). After 6 weeks, mice were euthanized using cervical dislocation, and the liver, diaphragm, lungs, cecum, duodenum, and peritoneum were macroscopically examined for the presence of tumor nodules. Liver and lung tissues were then fixed in formalin for 24 h and stored in 70% ethanol for maximum 3 days before embedding in paraffin. Next, a hematoxylin and eosin (H&E) staining was performed on 8 μm sections, and 3 sections per mouse were visualized using microscopy. Slides from tumor-bearing mice were analyzed by two blinded, independent investigators using the scoring system described in Additional file 5: Table S3. In case of differences, slides were scored by a third blinded, independent investigator for consensus.
(§4) The Kolmogorov-Smirnov test was used to assess if data obtained were normally distributed. For sample size n < 10, non-parametric tests (Mann-Whitney U test) were performed directly. Slope comparison was based on linear regression analysis. Bootstrapped medians and Hedges G-values were used to calculate the effect size when sample sizes were different between the groups.

[6] = test system: luciferase-transfected HCT-8/E11 cells injected into the cecal wall; experiment: Orthotopic mouse model: macroscopic number of tumor nodules on the cecum; assay type: in vivo, female athymic nude mice (Swiss nu/nu)
Procedure: as §3
as §4, with “groups. Cohen’s d values were calculated as a measure of the effect size when similar standard deviations for both groups were found, and sample sizes were the same.” for “groups.”

[7] = test system: tumor nodules in the liver; experiment: Orthotopic mouse model: histopathological evaluation of liver; assay type: in vivo, female athymic nude mice (Swiss nu/nu)
Procedure: as §3

[8] = test system: tumor nodules in the lungs; experiment: Orthotopic mouse model: histopathological evaluation of lungs; assay type: in vivo, female athymic nude mice (Swiss nu/nu)
Procedure: as §3

[9] = after a 6-week treatment, compared to the placebo group
[10] = individual samples, one line per sample

**Q.** “C-X-C motif chemokine 12 (KPVSLSYRC; only N-terminal stretch given) [CXCL12, endogenous ligand of the CXCR4 receptor]” was tested. Which “effect on E-cadherin levels in HCT-8 cells” value ([1]; 24 h, n = 15) did it give?
**A.** significant decrease

**Q.** And the “E-cadherin expression relative to H2O control (= 100)” value ([1]; D-scan sheet, Blot 13, CXCL12 1µg/ml, relative to H2O lane = 100.0, single blot)?
**A.** 89.3

**Q.** What about the “E-cadherin expression relative to H2O control (= 100)” value ([1]; D-scan sheet, Blot 14, CXCL12 1µg/ml, relative to H2O lane = 100.0, single blot) of the same substance?
**A.** 93.2

**Q.** And the “E-cadherin expression relative to H2O control (= 100)” value ([1]; D-scan sheet, Blot 15, CXCL12 1µg/ml, relative to H2O lane = 100.0, single blot)?
**A.** 77.6

**Q.** And the “E-cadherin expression relative to H2O control (= 100)” value ([1]; D-scan sheet, Blot 16, CXCL12 1µg/ml, relative to H2O lane = 100.0, single blot)?
**A.** 91.1

**Q.** What about the “E-cadherin expression relative to H2O control (= 100)” value ([1]; D-scan sheet, Blot 17, CXCL12 10µg/ml, relative to H2O lane = 100.0, single blot) of the same substance?
**A.** 46.4

**Q.** What about the “E-cadherin expression relative to H2O control (= 100)” value ([1]; D-scan sheet, Blot 18, CXCL12 10µg/ml, relative to H2O lane = 100.0, single blot) of the same substance?
**A.** 45.6

**Q.** What about the “E-cadherin expression relative to H2O control (= 100)” value ([1]; D-scan sheet, Blot 19, CXCL12 10µg/ml, relative to H2O lane = 100.0, single blot) of the same substance?
**A.** 84.8

**Q.** What about the “E-cadherin expression relative to H2O control (= 100)” value ([1]; D-scan sheet, Blot 20, CXCL12 10µg/ml, relative to H2O lane = 100.0, single blot) of the same substance?
**A.** 28.8

**Q.** And the “E-cadherin expression relative to H2O control (= 100)” value ([1]; D-scan sheet, Blot 21, CXCL12 100µg/ml, relative to H2O lane = 100.0, single blot)?
**A.** 80.5

**Q.** And the “E-cadherin expression relative to H2O control (= 100)” value ([1]; D-scan sheet, Blot 22, CXCL12 100µg/ml, relative to H2O lane = 100.0, single blot)?
**A.** 80.0

**Q.** What about the “E-cadherin expression relative to H2O control (= 100)” value ([1]; D-scan sheet, Blot 23 (single blot), chemiluminescence band, Norm. Vol. relative to H2O lane = 100.0, CXCL12 at 100µg/ml) of the same substance?
**A.** 75.6

**Q.** And the “E-cadherin expression relative to H2O control (= 100)” value ([1]; D-scan sheet, Blot 24 (single blot), chemiluminescence band, Norm. Vol. relative to H2O lane = 100.0, CXCL12 at 100µg/ml)?
**A.** 96.6

**Q.** And the “E-cadherin expression relative to H2O control (= 100)” value ([1]; H2O = 100.0, CXCL12 at 10µg/ml, mean of the replicates (row r47, unlabelled; SEM in row below))?
**A.** 51.4

**Q.** What about the “Relative E-cadherin decrease in different cell lines, Average” value ([1]; HCT-8 cells, average (EntF* n = 15, CXCL12 n = 4)) of the same substance?
**A.** 51.4

**Q.** And the “Relative E-cadherin expression, average” value [2]?
**A.** 78.2

**Q.** And the “Relative E-cadherin in different cell lines, Average” value [3]?
**A.** 45.3

**Q.** And the “effect on E-cadherin expression in HCT-116 cells” value ([4]; CXCR4-negative cells, 24 h, n = 12)?
**A.** no decrease

**Q.** And the “Relative E-cadherin level” value ([4]; HCT-116 cells, average of n = 12)?
**A.** 111.3

**Q.** Which results are given for TGFa?
**A.** Relative E-cadherin decrease ([1]; Ala-scan sheet, Blot 19 (single blot), chemiluminescence band, placebo lane = 100): 49.4514; E-cadherin expression relative to H2O control (= 100) ([1]; Ala-scan sheet, Blot 20 (single blot), chemiluminescence band, placebo lane = 100): 55.9239; Relative E-cadherin decrease ([1]; Ala-scan sheet, Blot 21 (single blot), chemiluminescence band, placebo lane = 100): 121.047; E-cadherin expression relative to H2O control (= 100) ([1]; Ala-scan sheet, Blot 24 (single blot), chemiluminescence band, Norm. Vol. relative to placebo lane = 100): 52.2; E-cadherin expression relative to H2O control (= 100) ([1]; Ala-scan sheet, Blot 25 (single blot), chemiluminescence band, Norm. Vol. relative to placebo lane = 100): 30.5; E-cadherin expression relative to H2O control (= 100) ([1]; Ala-scan sheet, Blot 26 (single blot), chemiluminescence band, Norm. Vol. relative to placebo lane = 100): 88.2; E-cadherin expression relative to H2O control (= 100) ([1]; Ala-scan sheet, Blot 27 (single blot), chemiluminescence band, Norm. Vol. relative to placebo lane = 100): 330.9; E-cadherin expression relative to H2O control (= 100) ([1]; Ala-scan, Blot 11 (single blot replicate), normalized band volume relative to Placebo = 100.0): 85.7; E-cadherin expression relative to H2O control (= 100) ([1]; Ala-scan, Blot 12 (single blot replicate), normalized band volume relative to Placebo = 100.0): 80.6; E-cadherin expression relative to H2O control (= 100) ([1]; Ala-scan, Blot 13 (single blot replicate), normalized band volume relative to Placebo = 100.0): 55.6; E-cadherin expression relative to H2O control (= 100) ([1]; Ala-scan, Blot 14 (single blot replicate), normalized band volume relative to Placebo = 100.0): 119.9; E-cadherin expression relative to H2O control (= 100) ([1]; Ala-scan, Blot 18 (single blot replicate), normalized band volume relative to Placebo = 100.0): 188.1; Ala scan: Relative E-cadherin decrease ([1]; H2O = 100.0, mean of the replicates (row r29, unlabelled; SEM in row below)): 73.9; Ala-scan: Mean decrease (%) ([1]; H2O vs. test, 95% CI, Dunnett's and Fisher's LSD P values in neighbouring columns): 26.1%

**Q.** Which results are given for Epidermal Growth Factor [EGF]?
**A.** effect size of bioluminescence, upper end of range ([5]; after a 6-week treatment): 826%; effect size class by Hedges' G, bioluminescence [5, 9]: medium to large effect; effect size: increase in bioluminescence compared to the placebo ([5]; after a 6-week treatment, bootstrapped median): 316%; luciferase activity / tumor growth compared to the vehicle ([5]; daily i.p. over 6 weeks, linear regression slope comparison): significant increase in tumor growth; effect size class by Hedges' G, number of nodules in the cecum [6, 9]: large; increase in the number of nodules on the cecum compared to PBS vehicle ([6]; after a 6-week treatment, macroscopic inspection): 4.5 fold; Mean amount of nodules ([6]; macroscopic evaluation caecum, mean of the group): 16.3; Histology scoring LIVER, Scoring person 1 (ND) [7, 10]: 4 and 3 and 2 and 0; Histology scoring LIVER, Scoring person 2 (ADS) [7, 10]: 4 and 2 and 1 and 3 and 0; Histology scoring LIVER, conclusion per sample [7, 10]: 4 and 2 and 1 and 3 and 0; Histology scoring LIVER, conclusion per group ([7]; per group): 3; Histology scoring LUNGS, Scoring person 1 (ND) [8, 10]: 3 and 4 and 0 and 1; Histology scoring LUNGS, Scoring person 2 (ADS) [8, 10]: 3 and 4 and 0 and 1; Histology scoring LUNGS, conclusion per sample [8, 10]: 3 and 4 and 0 and 1; Histology scoring LUNGS, conclusion per group ([8]; per group): 3
